Experimental findings from patent publication US11628163B2, “1-piperidinepropionic acid for treating a fibrosing disease” (UNIVERSITÀ DEGLI STUDI DI PADOVA, priority 2017, dated 2023) are described below.

In one assay the test system is SerpinB3. The assay can be described thus: SerpinB3 mRNA expression in HT29 tumor cells (real-time PCR). The format is cell-based. To be noted: 24 hours. As for the experimental part:
HT29 tumor cells, constitutively expressing SerpinB3, were used, […] cells/well were seeded into 6-well plates and kept 24 hours prior to treatment in modified McCoy medium (Sigma-Aldrich, Milan, Italy) supplemented with heat-inactivated 10% fetal calf serum, (Sigma-Aldrich, Milan, Italy), 100 U/ mL penicillin, […] streptomycin, and 20 mM L-glutamine (Sigma-Aldrich, Milan, Italy),
Then, PPA (1′-piperidinepropionic acid) was added, at a concentration of 100 ng/ml alone or in combination with recombinant SerpinB3 (SB3) at a concentration of 200 ng/ml, whereas the medium alone (untreated HT-29 cells) was added into control wells. After 24 hours of treatment cells were harvested, and extraction of total cell RNA and reverse transcription were performed according to standard protocols. mRNA SerpinB3 levels were measured by real-time PCR (sense: 5′-GCAAATGCTCCAGAAGAAAG-3′; reverse 5′-CGA GGC AAA ATGAAAA AGA TG-3′) and the results were normalized on the basis of data obtained with housekeeping HPRT1 (sense 5′-TCAGGCAGTATAATCC AAAGATGGT-3′; reverse 5′-[…] -3′).
In general terms: Real-time PCR tracks product formation cycle by cycle.

Assay [1] relates to experimental murine model of steatohepatitis (NASH). Kind of assay: Murine model of steatohepatitis (NASH): methionine- and choline-deficient diet (MCD), SerpinB3-transgenic and wild-type (C57BL/7) mice. The format is in vivo. To be noted: for liver histology: steatosis and lobular damage / relative liver weight (liver weight/body weight): MCD diet 8 weeks, i.p. daily from Week 4, PPA 0.01 μg/g or Curcumin 0.2 mg/g; for liver histology: steatosis and lobular damage: especially transgenic mice liver; for relative liver weight (liver weight/body weight): wild-type and SerpinB3-transgenic mice, more evident in transgenic mice. The method, then:
PPA effect was also assessed in a murine model of fibrosing disease, in particular an experimental model of non-alcoholic steatohepatitis, which is a condition in which a fatty liver, associated with inflammation and fibrosis production, causes, among other things, a high risk of neoplastic transformation. In the study, both SerpinB3-transgenic mice and the respective wild-type (C57BL/7) strain were used, fed for 8 weeks with a methionine- and choline-deficient diet (MCD), which constitutes a recognized steatohepatitis induction model, or with a normal diet. MCD diet-treated transgenic and control mice groups starting from Week 4, were administered daily by intraperitoneal route, PPA (0.01 μg/g), or Curcumin (a molecule with a recognized anti-inflammatory and anti-fibrotic activity in animal models) as control, at standard concentrations (0.2 mg/g).
To assess PPA effect as SerpinB3 inhibitor in an experimental murine model of steatohepatitis (NASH), a condition with a high risk of hepatic tumor, both SerpinB3-transgenic mice and the respective wild-type (C57BL/7) strain were used.
The animals were fed for 8 weeks with a methionine- and choline-deficient diet (MCD), a recognized steatohepatitis induction model, or with a normal diet. MCD diet-treated transgenic and control mice groups, starting from Week 4, were administered daily, by intraperitoneal route, PPA (0.01 μg/g), or Curcumin (a molecule with a recognized anti-inflammatory and anti-fibrotic activity in animal models) as control, at the standard concentration of 0.2 mg/g. […] This effect was more evident in transgenic mice.

A further assay has as its system primary human monocytes. The assay can be described thus: Release of soluble CD163 (sCD163) by primary human monocytes. Format: cell-based. As for the experimental part:
PPA effect was evaluated in this context as well, where primary monocytes incubated 1 week with SerpinB3 at a concentration of 200 ng/ml alone, or in association with PPA (100 ng/ml) were used. Monocytes kept in culture medium and monocytes treated with PPA alone at the same concentrations were used as controls.

[2] abbreviates: SerpinB3 transgenic mice, MCD diet, PPA 0.01 μg/g i.p. daily from Week 4.

“Also recorded” adds a separate entry of the source.

As for `O=C(O)CCN1CCCCC1` [PPA, 1-piperidinepropionic acid], in the assay with SerpinB3 (PPA 100 ng/ml + recombinant SerpinB3 200 ng/ml), the “SerpinB3 expression (mRNA) after induction from exogenous SerpinB3” value is given as “significantly reduce”. Further, in the assay on SerpinB3 (PPA 100 ng/ml alone, normalized to HPRT1), the “SerpinB3 expression (mRNA), constitutive” value is reported as “significantly reduce; also recorded: inhibit SerpinB3 synthesis”. Besides, in assay [1], the “liver histology: steatosis and lobular damage” value (from here on “liver histology”) is “reduced; also recorded: more marked steatosis, associated with a higher relative liver weight, compared to mice MCD diet-fed, but treated with PPA or curcumin”; the “relative liver weight (liver weight/body weight)” value was “reduced; also recorded: higher relative liver weight, compared to mice MCD diet-fed, but treated with PPA or curcumin; also recorded: higher relative liver weight (liver weight/body weight) after MCD diet, compared to mice treated with the same diet”. Further, in assay [1] (setting [2]), the “IL-1 beta gene expression” value is on record as “significant decrease”, the Mcp1 gene expression result is reported as “significant decrease” and the TNF-alpha gene expression result is on record as “increase was non-evident; also recorded: increase proved not evident”. Moreover, in assay [1] (both strains (wild-type and SerpinB3-transgenic), MCD diet, PPA 0.01 μg/g i.p. daily from Week 4), the “alpha-SMA (marker of stellate cell activation) gene expression” value is given as “marked reduction”. In the assay on primary human monocytes (primary monocytes, 1 week, SerpinB3 200 ng/ml + PPA 100 ng/ml), the “sCD163 release in the culture medium after stimulation with SerpinB3” value is on record as “markedly reduced”. The “spontaneous release of sCD163” value in the assay on primary human monocytes (primary monocytes, PPA alone 100 ng/ml, compared with untreated monocytes) is reported as “reduces”.
Regarding `COc1cc(/C=C/C(=O)CC(=O)/C=C/c2ccc(O)c(OC)c2)ccc1O` [Curcumin, reference compound], the “liver histology” value in assay [1] is given as “reduced”. Moreover, in assay [1] (listed as curcumin), the “liver histology” value is given as “more marked steatosis, associated with a higher relative liver weight, compared to mice MCD diet-fed, but treated with PPA or curcumin”; the “relative liver weight (liver weight/body weight)” value is given as “higher relative liver weight, compared to mice MCD diet-fed, but treated with PPA or curcumin”. In assay [1] (MCD diet, Curcumin 0.2 mg/g i.p. daily from Week 4), the “reduction of the inflammatory response” value is given as “obtained also with curcumin”.

B1: SerpinB3: recombinant SerpinB3 (Squamous Cell Carcinoma Antigen, SCCA1), a serine protease inhibitor, added as exogenous stimulus (protein, UniProt P29508 1-390, looked up)
Serpin B3: MNSLSEANTKFMFDLFQQFRKSKENNIFYSPISITSALGMVLLGAKDNTAQQIKKVLHFDQVTENTTGKAATYHVDRSGNVHHQFQKLLTEFNKSTDAYELKIANKLFGEKTYLFLQEYLDAIKKFYQTSVESVDFANAPEESRKKINSWVESQTNEKIKNLIPEGNIGSNTTLVLVNAIYFKGQWEKKFNKEDTKEEKFWPNKNTYKSIQMMRQYTSFHFASLEDVQAKVLEIPYKGKDLSMIVLLPNEIDGLQKLEEKLTAEKLMEWTSLQNMRETRVDLHLPRFKVEESYDLKDTLRTMGMVDIFNGDADLSGMTGSRGLVLSGVLHKAFVEVTEEGAEAAAATAVVGFGSSPTSTNEEFHCNHPFLFFIRQNKTNSILFYGRFSSP
For the molecule B1, in the assay on SerpinB3 (recombinant SerpinB3 200 ng/ml), the “SerpinB3 expression (mRNA) after treatment with exogenous SerpinB3” value is “increased”. Moreover, the “release of sCD163 induced by SerpinB3” value in the assay with primary human monocytes (primary human monocytes, SerpinB3 200 ng/ml, preliminary results) was “induces the release”.
